Test results published in PubChem BioAssay AID248 (DTP/NCI, 2004).
Where “and” joins values, the source holds several entries; their conditions need not be identical. Identical values can stand only once. Toxic doses and inconclusive results are not listed. Cut-off read from the data, not from the text of the source: active = T/C of 150% or more; inactive = T/C below 125%.

System: L1210 leukemia ip in BDF1 mice, survival T/C
Assay: NCI In Vivo Anticancer Drug Screen. Data for tumor model L1210 Leukemia (intraperitoneal) in B6D2F1 (BDF1) mice
Conditions: endpoint: mean survival time, higher = longer survival
In short: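 Tumor was transplanted into mice, which were then dosed with test compound or vehicle alone. Survival was recorded for each group, and the treated figure was expressed relative to the control figure.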

[1] = dose: 25.0 mg/kg/injection, schedule: Q04DX003 (ip), vehicle: saline
[2] = dose: 50.0 mg/kg/injection, schedule: Q01DX001 (ip), vehicle: saline
[3] = dose: 100.0 mg/kg/injection, schedule: Q01DX001 (ip), vehicle: saline
[4] = dose: 200.0 mg/kg/injection, schedule: Q01DX001 (ip), vehicle: saline
[5] = dose: 100.0 mg/kg/injection, schedule: Q01DX009 (ip), vehicle: Klucel (hydroxypropylcellulose) (HPC)
[6] = dose: 100.0 mg/kg/injection, schedule: Q04DX003 (ip), vehicle: other
[7] = dose: 200.0 mg/kg/injection, schedule: Q04DX003 (ip), vehicle: other
[8] = dose: 400.0 mg/kg/injection, schedule: Q04DX003 (ip), vehicle: other
[9] = dose: 100.0 mg/kg/injection, schedule: Q04DX003 (ip), vehicle: Klucel (hydroxypropylcellulose) (HPC)
[10] = dose: 200.0 mg/kg/injection, schedule: Q04DX003 (ip), vehicle: Klucel (hydroxypropylcellulose) (HPC)
[11] = dose: 400.0 mg/kg/injection, schedule: Q04DX003 (ip), vehicle: Klucel (hydroxypropylcellulose) (HPC)
[12] = dose: 200.0 mg/kg/injection, schedule: Q01DX009 (ip), vehicle: Klucel (hydroxypropylcellulose) (HPC)
[13] = dose: 400.0 mg/kg/injection, schedule: Q01DX009 (ip), vehicle: Klucel (hydroxypropylcellulose) (HPC)
[14] = dose: 50.0 mg/kg/injection, schedule: Q01DX009 (ip), vehicle: saline
[15] = dose: 100.0 mg/kg/injection, schedule: Q01DX009 (ip), vehicle: saline
[16] = dose: 200.0 mg/kg/injection, schedule: Q01DX009 (ip), vehicle: saline
[17] = dose: 100.0 mg/kg/injection, schedule: Q04DX003 (ip), vehicle: saline with Tween-80
[18] = dose: 200.0 mg/kg/injection, schedule: Q04DX003 (ip), vehicle: saline with Tween-80

Measured: T/C

CS/C(N)=N/N
inactive: dose: 12.5 mg/kg/injection, schedule: Q04DX003 (ip), vehicle: saline 100 % of control | dose: 25.0 mg/kg/injection, schedule: Q01DX001 (ip), vehicle: saline 90 % of control | [1] 106 % of control | [2] 101 % of control

Nc1ccc(CCCNc2c(N)nc(N)nc2-c2ccccc2)cc1
inactive: [2] 100 % of control | [3] 103 % of control | [4] 94 % of control

CSc1nc(-c2ccc([N+](=O)[O-])cc2)oc1/N=C/c1ccc([N+](=O)[O-])cc1
inactive: dose: 100.0 mg/kg/injection, schedule: Q04DX002 (ip), vehicle: Klucel (hydroxypropylcellulose) (HPC) 96 % of control | dose: 200.0 mg/kg/injection, schedule: Q04DX002 (ip), vehicle: Klucel (hydroxypropylcellulose) (HPC) 96 % of control | dose: 400.0 mg/kg/injection, schedule: Q04DX002 (ip), vehicle: Klucel (hydroxypropylcellulose) (HPC) 96 % of control

Nc1cc(Cl)[nH]c(=O)n1
inactive: dose: 100.0 mg/kg/injection, schedule: Q01DX009 (ip), vehicle: gum acacia 100 % of control | dose: 200.0 mg/kg/injection, schedule: Q01DX009 (ip), vehicle: gum acacia 89 % of control

Cc1nnc(NC(=O)CCl)s1
inactive: dose: 100.0 mg/kg/injection, schedule: Q01DX001 (ip), vehicle: other 107 % of control | [5] 98 % of control | [6] 98 % of control | dose: 200.0 mg/kg/injection, schedule: Q01DX001 (ip), vehicle: other 100 % of control | [7] 106 % of control | dose: 400.0 mg/kg/injection, schedule: Q01DX001 (ip), vehicle: other 98 % of control | [8] 101 % of control

COc1ccc(C(=O)c2ccccc2)c(OC(=O)Nc2cc([N+](=O)[O-])ccc2F)c1
inactive: [9] 95 % of control | [10] 101 % of control | [11] 98 % of control

O=C(Nc1ccccc1C(F)(F)F)OCCOc1ccc(Cl)cc1
inactive: [5] 98 % of control | [12] 91 % of control | [13] 87 % of control

CC[P+](CC)(CC)CCCCI
inactive: dose: 12.0 mg/kg/injection, schedule: Q01DX009 (ip), vehicle: saline 94 % of control | dose: 25.0 mg/kg/injection, schedule: Q01DX009 (ip), vehicle: saline 101 % of control | [1] 105 % of control | [14] 101 % of control and 91 % of control | dose: 50.0 mg/kg/injection, schedule: Q04DX003 (ip), vehicle: saline 114 % of control

NC(N)=NNCCOc1c(Cl)cccc1Cl
inactive: dose: 25.0 mg/kg/injection, schedule: Q01DX001 (ip), vehicle: carboxymethylcellulose (CMC) 116 % of control | dose: 50.0 mg/kg/injection, schedule: Q01DX001 (ip), vehicle: carboxymethylcellulose (CMC) 101 % of control | dose: 100.0 mg/kg/injection, schedule: Q01DX001 (ip), vehicle: carboxymethylcellulose (CMC) 111 % of control

CCCCCCC(=O)N(CC)C(=NCC)c1ccc(NC(=O)c2ccc(C(=O)Nc3ccc(C(=NCC)N(CC)C(=O)CCCCCC)cc3)cc2)cc1
inactive: dose: 3.75 mg/kg/injection, schedule: Q01DX015 (ip), vehicle: methylcellulose (MC) 98 % of control | dose: 7.5 mg/kg/injection, schedule: Q01DX015 (ip), vehicle: methylcellulose (MC) 101 % of control | dose: 15.0 mg/kg/injection, schedule: Q01DX015 (ip), vehicle: methylcellulose (MC) 98 % of control | dose: 30.0 mg/kg/injection, schedule: Q01DX015 (ip), vehicle: methylcellulose (MC) 90 % of control | dose: 62.0 mg/kg/injection, schedule: Q01DX015 (ip), vehicle: methylcellulose (MC) 93 % of control | dose: 125.0 mg/kg/injection, schedule: Q01DX015 (ip), vehicle: methylcellulose (MC) 90 % of control | dose: 250.0 mg/kg/injection, schedule: Q01DX015 (ip), vehicle: methylcellulose (MC) 87 % of control | dose: 500.0 mg/kg/injection, schedule: Q01DX015 (ip), vehicle: methylcellulose (MC) 86 % of control

CCCCCCOC(=O)N1CCN(c2ccccc2)CC1
inactive: [14] 106 % of control | [15] 92 % of control | [16] 90 % of control

CCN(C(=O)Nc1ccc([N+](=O)[O-])cc1OC)c1cccc(C)c1
inactive: [5] 94 % of control | [12] 97 % of control | [13] 100 % of control

C/C(=N/O)c1c[n+]([O-])ccn1
inactive: [15] 102 % of control | [9] 94 % of control | dose: 100.0 mg/kg/injection, schedule: Q04DX003 (ip), vehicle: saline 101 % of control | [16] 94 % of control | [10] 94 % of control | dose: 200.0 mg/kg/injection, schedule: Q04DX003 (ip), vehicle: saline 98 % of control | dose: 400.0 mg/kg/injection, schedule: Q01DX009 (ip), vehicle: saline 96 % of control | [11] 100 % of control | dose: 400.0 mg/kg/injection, schedule: Q04DX003 (ip), vehicle: saline 102 % of control

N#CCCN1CCCCCC1
inactive: dose: 15.0 mg/kg/injection, schedule: Q01DX009 (ip), vehicle: saline with Tween-80 98 % of control | dose: 30.0 mg/kg/injection, schedule: Q01DX009 (ip), vehicle: saline with Tween-80 95 % of control | dose: 30.0 mg/kg/injection, schedule: Q04DX003 (ip), vehicle: saline with Tween-80 92 % of control | dose: 60.0 mg/kg/injection, schedule: Q01DX009 (ip), vehicle: saline with Tween-80 104 % of control | dose: 60.0 mg/kg/injection, schedule: Q04DX003 (ip), vehicle: saline with Tween-80 109 % of control

O=C(/C(=N/Nc1ccccc1)c1ccccc1)c1ccccc1
inactive: dose: 25.0 mg/kg/injection, schedule: Q04DX003 (ip), vehicle: Klucel (hydroxypropylcellulose) (HPC) 104 % of control | dose: 50.0 mg/kg/injection, schedule: Q04DX003 (ip), vehicle: Klucel (hydroxypropylcellulose) (HPC) 95 % of control | [5] 108 % of control | [9] 100 % of control and 103 % of control | [12] 104 % of control | [10] 97 % of control | [13] 104 % of control | [11] 95 % of control

O=P1(CCc2ccc(Cl)cc2)CC(Br)C(Br)C1 (centres undefined)
inactive: [6] 93 % of control | [7] 95 % of control | [8] 98 % of control

O=C(O)C1CCOCC1
inactive: [5] 98 % of control | [9] 96 % of control | [12] 95 % of control | [10] 89 % of control | [13] 111 % of control | [11] 88 % of control

O=C(NCCCl)Nc1ccccn1
inactive: [9] 90 % of control | [10] 94 % of control | [11] 86 % of control

CCOC(=O)C(CSCSC)NC(=O)/C=C/c1cccnc1 (centres undefined)
inactive: dose: 100.0 mg/kg/injection, schedule: Q01DX009 (ip), vehicle: saline with Tween-80 101 % of control | [17] 93 % of control | dose: 200.0 mg/kg/injection, schedule: Q01DX009 (ip), vehicle: saline with Tween-80 98 % of control | [18] 97 % of control | dose: 400.0 mg/kg/injection, schedule: Q01DX009 (ip), vehicle: saline with Tween-80 90 % of control | dose: 400.0 mg/kg/injection, schedule: Q04DX003 (ip), vehicle: saline with Tween-80 90 % of control

CCc1nc(N)nc(N)c1-c1ccc([N+](=O)[O-])cc1O
inactive: [9] 92 % of control | [10] 93 % of control | [11] 89 % of control

Cc1cccnc1C(=O)O
inactive: dose: 50.0 mg/kg/injection, schedule: Q04DX003 (ip), vehicle: saline with Tween-80 94 % of control | [3] 94 % of control | [17] 95 % of control | [4] 94 % of control | [18] 91 % of control

Cc1c(C)c(Cl)c(C)c(Cl)c1O
inactive: [5] 94 % of control | [9] 98 % of control | [12] 89 % of control | [10] 93 % of control | [13] 91 % of control | [11] 105 % of control

[CH3][Sn]([Br])([Br])[CH2]CCCBr
inactive: dose: 1.56 mg/kg/injection, schedule: Q01DX009 (ip), vehicle: saline 103 % of control | dose: 3.12 mg/kg/injection, schedule: Q01DX009 (ip), vehicle: saline 112 % of control | dose: 6.25 mg/kg/injection, schedule: Q01DX009 (ip), vehicle: saline 100 % of control
